Type in all cases: in vivo, human
The subject of series [1] is patient diagnosed or previously diagnosed with COVID-19 and having at least partial smell or taste loss. Kind of series: Example 1: intranasal theophylline formulation in a patient with smell or taste loss associated with COVID-19. The procedure: A patient diagnosed or previously diagnosed with COVID-19 and having at least partial smell or taste loss associated with COVID-19 is treated with an intranasally administered a formulation comprising theophylline, which is given once per day, in each naris, for about 30 days, 60 days, or 90 days.
Administration of the formulation produces an increase in the patient's sonic hedgehog levels or cyclic nucleotide levels within about 30 days, 60 days, or 90 days.

Series [2] deals with patient who had loss of taste and smell from COVID-19. Kind of series: Side effects during intranasal theophylline treatment. Particulars: 80 μg theophylline via two actuations from nasal spray device once per day, 3 months. How it is done:
(§1) Theophylline was administered to a patient who had loss of taste and smell from COVID-19. A formulation containing 80 μg of theophylline was administered via two actuations from nasal spray device once per day. Prior to the initial administration of theophylline, a baseline smell test was performed. A follow-up smell test was performed 3 months after the initial administration. […] The patient's detection threshold (DT) and recognition threshold (RT) for pyridine (Pyr), nitrobenzene (NO2B), thiophene (Thio) and amyl acetate (AA) was determined before treatment (pre) and after treatment (3M). In all four odorant tests, the patient's detection threshold and recognition threshold improved. An improvement of 1 bottle unit means that a patient could detect and/or recognize an odorant that was 10 times lower in concentration, when compared to baseline. For example, the recognition threshold (RT) of AA improved by 8 bottle units, also equivalent to an improvement of 8 orders of magnitude. In this case, the patient could detect a concentration of AA that was 108 lower in concentration. Bottle unit numbers that are 5 or lower are considered to be in the range of normal.

Series [3] has the same test system. As to the kind of experiment: Psychophysical smell test, forced-choice three-stimuli stepwise-staircase technique (detection and recognition thresholds for four odors).
Text: The Patient initially reported their sensory dysfunction as either loss of taste (i.e., flavor) and/or smell function. This subjective response was documented by objective psychophysical measurements of olfactory function administered to each patient by use of a forced-choice, three-stimuli, stepwise-staircase technique in a fixed, controlled design (1, 2). Efficacy of this technique and results of testing were previously documented in a double-blind clinical trial (2). Four odors were used; they were pyridine (dead-fish odor), nitrobenzene (bitter-almond odor), thiophene (petroleum-like odor) and amyl acetate (banana-oil odor). Detection thresholds (DT), and recognition thresholds (RT) values for each odor were determined as previously described (1, 2). Thresholds were converted into bottle units (BU) as previously described (2) and results reported as M of correct responses for each odor in each treatment group. References: (1) Henkin, R. I. Evaluation and treatment of human olfactory dysfunction, in Otolaryngology (English, G. M. Ed.), Lippincott, Philadelphia, 1993, Vol. 2, pp. 1-86. (2) Henkin, R. I., Schecter, P. J., Friedewald, W. T., DeMets, D. L., Raff, M. S. A double blind study of the effects of zinc sulfate on taste and smell dysfunction. Amer. J. Med. Sci. 1976; 272:285-299.
as §1

The mark [4] stands for this setting: 3 months after initial administration, 80 μg theophylline intranasal once per day, baseline (Pre) 10, 5 or lower is normal.
[5] abbreviates: 3 months after initial administration, 80 μg theophylline intranasal once per day, baseline (Pre) 11, 5 or lower is normal.
Where [6] appears, read: 3 months after initial administration, 80 μg theophylline intranasal once per day, baseline (Pre) 12, 5 or lower is normal.

Molecules are shown by their SMILES.

As for `Cn1c(=O)c2[nH]cnc2n(C)c1=O` [theophylline], in series [1] (intranasal once per day in each naris for about 30, 60 or 90 days), the “Patient's ability to taste and smell” value was “significant increase”. In addition, the “Patient's sonic hedgehog levels or cyclic nucleotide levels” value in series [1] (intranasal once per day in each naris, within about 30 days, 60 days, or 90 days) was “increase”. The Side effects result in series [2] was “No side effects were reported”. Further, in series [3] (setting [4]), the “Detection threshold (DT), thiophene (Thio)” value came to 4 bottle units and the “Recognition threshold (RT), thiophene (Thio)” value is recorded as 4 bottle units. Further, in series [3] (setting [5]), the “Detection threshold (DT), amyl acetate (AA)” value was found to be 4 bottle units; the “Detection threshold (DT), nitrobenzene (NO2B)” value is on record as 9 bottle units; the “Detection threshold (DT), pyridine (Pyr)” value worked out at 7 bottle units; the “Recognition threshold (RT), pyridine (Pyr)” value was 7 bottle units. In series [3] (setting [6]), the “Recognition threshold (RT), amyl acetate (AA)” value came out at 4 bottle units and the “Recognition threshold (RT), nitrobenzene (NO2B)” value is given as 9 bottle units. Also, the “Improvement of recognition threshold (RT) of AA” value in series [3] (3 months vs baseline, 1 bottle unit = 10 times lower concentration) is 8 bottle units. Also, the “Detection threshold and recognition threshold in all four odorant tests” value in series [3] (3 months vs baseline, pyridine, nitrobenzene, thiophene, amyl acetate) was “improved”.
